From patent US20240317777A1, “NOVEL MACROCYCLIC AMINOPYRAZOLE COMPOUNDS AS CDK2 INHIBITORS” (Accutar Biotechnology Inc., priority 2023, published 2024)
Like-named read-outs stand apart in the source and are kept apart here.

Legend:
[1] = tested on: Phospho-Rb (Ser807/811) in OVCAR3 cells; test: Phospho-Rb expression inhibition in OVCAR3 cells quantified by In Cell Western; assay type: cell-based; conditions: Homo sapiens, OVCAR-3, 24 hours, read-out: OVCAR-3 pRb IC50
Summary of the method: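 In-cell western: after 24 h compound exposure at 37° C, fixed OVCAR3 cells co-stained for pRb Ser807/811 (800 nm channel) and total Rb (680 nm channel), imaged by LI-COR Odyssey.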

CDK9-CYCLIN T1 = CDK9-CYCLIN T1 (Homo sapiens, UniProt P50750); test: CDK protein kinase inhibition by ADP-Glo assay, CDK9-CYCLIN T1; assay type: biochemical; conditions: for IC50: read-out: CDK9-CYCLINT1, IC50; for CDK2 Fold selectivity against CDK9: fold selectivity for CDK2 over CDK9, recombinant CDK kinases
Summary of the method: (§1)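 Luminescent ADP-Glo read-out of ADP generated as kinase/cyclin complexes turn over peptide substrate. Reactions ran at 22° C with 1000 μM ATP, 5 mM Mg2+, pH 7.5 HEPES buffer, 1% DMSO.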

CDK2-CYCLIN E1 = CDK2-CYCLIN E1 (Homo sapiens, UniProt P24941); test: CDK protein kinase inhibition by ADP-Glo assay, CDK2-CYCLIN E1; assay type: biochemical; conditions: read-out: CDK2-CYCLINE, IC50
Summary of the method: as §1

CDK1-CYCLIN B = CDK1-CYCLIN B (Homo sapiens, UniProt P06493); test: CDK protein kinase inhibition by ADP-Glo assay, CDK1-CYCLIN B; assay type: biochemical; conditions: for IC50: read-out: CDK1-CYCLINB, IC50; for CDK2 Fold selectivity against CDK1: fold selectivity for CDK2 over CDK1, recombinant CDK kinases
Summary of the method: as §1

CDK4-CYCLIN D1 = CDK4-CYCLIN D1 (Homo sapiens, UniProt P11802); test: CDK protein kinase inhibition by ADP-Glo assay, CDK4-CYCLIN D1; assay type: biochemical; conditions: for IC50: read-out: CDK4-CYCLIND1, IC50; for CDK2 Fold selectivity against CDK4: fold selectivity for CDK2 over CDK4, recombinant CDK kinases
Summary of the method: as §1

CDK6-CYCLIN D3 = CDK6-CYCLIN D3 (Homo sapiens, UniProt Q00534); test: CDK protein kinase inhibition by ADP-Glo assay, CDK6-CYCLIN D3; assay type: biochemical; conditions: for IC50: read-out: CDK6-CYCLIND3, IC50; for CDK2 Fold selectivity against CDK6: fold selectivity for CDK2 over CDK6, recombinant CDK kinases
Summary of the method: as §1

[2] = tested on: CCNE1-amplified OVCAR3 cells; test: Cell growth inhibition of CCNE1-amplified OVCAR3 cells (CellTiter-Glo); assay type: cell-based; conditions: Homo sapiens, OVCAR-3, 144 h, 6 days
Summary of the method: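 Growth read-out was CellTiter-Glo luminescence, taken after 10 min at room temperature at the end of a 6-day compound exposure at 37 °C. Compounds were diluted from DMSO stocks across various concentrations.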

CCNE1-normal SKOV3 cells = test: Cell growth inhibition of CCNE1-normal SKOV3 cells (CellTiter-Glo); assay type: cell-based; conditions: Homo sapiens, SK-OV-3, 144 h, 6 days
Summary of the method: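 Growth was measured by CellTiter-Glo luminescence after 6 days' compound exposure at 37 °C. Cells were plated one day before dosing at 1000 per well in medium with 10% FBS, and compounds were diluted from DMSO stocks.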

[3] = Table 35, recombinant CDK kinase
[4] = Table 37, recombinant CDK kinase

Sequence of CDK1-CYCLIN B (P06493 whole entry): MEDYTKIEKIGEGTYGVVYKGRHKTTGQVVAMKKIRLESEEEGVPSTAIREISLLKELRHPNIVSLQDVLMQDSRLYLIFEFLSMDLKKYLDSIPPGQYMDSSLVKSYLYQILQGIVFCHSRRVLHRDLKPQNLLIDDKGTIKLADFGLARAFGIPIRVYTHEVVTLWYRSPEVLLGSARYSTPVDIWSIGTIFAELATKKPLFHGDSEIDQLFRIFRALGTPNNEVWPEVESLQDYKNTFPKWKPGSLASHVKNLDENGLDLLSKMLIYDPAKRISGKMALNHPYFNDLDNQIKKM
Sequence of CDK1-CYCLIN B (P14635 whole entry partner): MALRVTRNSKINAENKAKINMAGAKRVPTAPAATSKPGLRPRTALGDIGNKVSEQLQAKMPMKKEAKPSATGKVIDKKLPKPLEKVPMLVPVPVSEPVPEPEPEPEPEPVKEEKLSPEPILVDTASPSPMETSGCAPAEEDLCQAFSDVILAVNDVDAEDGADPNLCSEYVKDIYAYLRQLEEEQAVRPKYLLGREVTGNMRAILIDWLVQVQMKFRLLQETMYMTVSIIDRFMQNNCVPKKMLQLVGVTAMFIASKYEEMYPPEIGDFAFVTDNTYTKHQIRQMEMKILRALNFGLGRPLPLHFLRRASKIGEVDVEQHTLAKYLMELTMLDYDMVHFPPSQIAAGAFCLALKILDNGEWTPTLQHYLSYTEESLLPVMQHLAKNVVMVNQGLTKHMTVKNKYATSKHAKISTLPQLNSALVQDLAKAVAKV
Sequence of CDK9-CYCLIN T1 (P50750 whole entry): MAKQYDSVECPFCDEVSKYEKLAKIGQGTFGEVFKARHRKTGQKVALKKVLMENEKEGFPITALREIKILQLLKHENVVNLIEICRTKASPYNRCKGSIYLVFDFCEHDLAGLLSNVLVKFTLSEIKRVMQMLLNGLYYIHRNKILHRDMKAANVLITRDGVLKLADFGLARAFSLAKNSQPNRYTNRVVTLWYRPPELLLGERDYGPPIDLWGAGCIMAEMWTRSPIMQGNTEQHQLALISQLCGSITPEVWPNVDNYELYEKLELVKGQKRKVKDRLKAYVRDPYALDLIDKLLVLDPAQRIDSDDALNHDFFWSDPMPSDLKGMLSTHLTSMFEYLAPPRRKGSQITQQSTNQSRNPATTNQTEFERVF
Sequence of CDK9-CYCLIN T1 (O60563 whole entry partner): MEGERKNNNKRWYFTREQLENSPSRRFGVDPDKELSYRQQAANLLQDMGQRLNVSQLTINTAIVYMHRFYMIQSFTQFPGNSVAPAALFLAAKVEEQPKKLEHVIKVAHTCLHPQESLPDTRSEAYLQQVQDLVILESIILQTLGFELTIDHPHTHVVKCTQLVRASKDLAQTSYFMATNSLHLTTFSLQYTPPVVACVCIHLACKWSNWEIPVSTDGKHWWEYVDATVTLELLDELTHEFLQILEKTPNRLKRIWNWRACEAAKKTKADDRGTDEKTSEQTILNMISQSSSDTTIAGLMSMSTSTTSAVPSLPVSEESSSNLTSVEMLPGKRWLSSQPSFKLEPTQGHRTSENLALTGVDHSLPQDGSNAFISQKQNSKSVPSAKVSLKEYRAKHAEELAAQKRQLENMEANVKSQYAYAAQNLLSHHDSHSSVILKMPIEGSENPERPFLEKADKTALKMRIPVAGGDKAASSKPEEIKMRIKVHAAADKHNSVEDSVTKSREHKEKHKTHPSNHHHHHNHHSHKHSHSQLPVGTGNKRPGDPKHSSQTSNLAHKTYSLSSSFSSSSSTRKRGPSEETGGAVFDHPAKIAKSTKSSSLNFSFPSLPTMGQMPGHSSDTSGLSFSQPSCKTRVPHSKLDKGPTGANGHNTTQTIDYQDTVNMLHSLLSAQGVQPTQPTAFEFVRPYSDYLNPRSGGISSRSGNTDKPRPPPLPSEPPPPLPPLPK
Sequence of CDK6-CYCLIN D3 (Q00534 whole entry): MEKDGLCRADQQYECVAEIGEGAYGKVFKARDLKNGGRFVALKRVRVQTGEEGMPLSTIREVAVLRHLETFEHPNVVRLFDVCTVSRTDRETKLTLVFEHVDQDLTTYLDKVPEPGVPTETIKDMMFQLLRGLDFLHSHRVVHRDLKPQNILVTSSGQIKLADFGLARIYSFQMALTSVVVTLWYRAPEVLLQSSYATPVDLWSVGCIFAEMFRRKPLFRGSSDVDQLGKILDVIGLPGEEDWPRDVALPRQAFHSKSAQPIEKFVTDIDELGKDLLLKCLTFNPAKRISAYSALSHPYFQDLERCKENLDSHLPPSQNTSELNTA
Sequence of CDK6-CYCLIN D3 (P30281 whole entry partner): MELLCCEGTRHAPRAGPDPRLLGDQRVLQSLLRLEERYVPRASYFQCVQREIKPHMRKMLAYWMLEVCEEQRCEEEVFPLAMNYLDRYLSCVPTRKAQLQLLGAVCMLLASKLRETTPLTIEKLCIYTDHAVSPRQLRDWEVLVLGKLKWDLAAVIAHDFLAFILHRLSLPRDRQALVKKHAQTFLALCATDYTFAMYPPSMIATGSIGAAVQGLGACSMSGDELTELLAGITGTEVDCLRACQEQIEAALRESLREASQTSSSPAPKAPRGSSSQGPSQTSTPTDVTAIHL
Sequence of CDK4-CYCLIN D1 (P11802 whole entry): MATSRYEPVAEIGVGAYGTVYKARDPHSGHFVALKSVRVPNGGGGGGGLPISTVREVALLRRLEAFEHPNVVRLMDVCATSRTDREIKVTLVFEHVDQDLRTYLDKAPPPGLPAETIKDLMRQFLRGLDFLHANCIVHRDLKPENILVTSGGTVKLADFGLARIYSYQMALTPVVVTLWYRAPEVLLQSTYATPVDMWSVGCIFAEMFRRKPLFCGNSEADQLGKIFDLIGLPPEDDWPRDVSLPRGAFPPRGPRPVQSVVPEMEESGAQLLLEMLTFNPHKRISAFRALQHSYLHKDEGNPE
Sequence of CDK4-CYCLIN D1 (P24385 whole entry partner): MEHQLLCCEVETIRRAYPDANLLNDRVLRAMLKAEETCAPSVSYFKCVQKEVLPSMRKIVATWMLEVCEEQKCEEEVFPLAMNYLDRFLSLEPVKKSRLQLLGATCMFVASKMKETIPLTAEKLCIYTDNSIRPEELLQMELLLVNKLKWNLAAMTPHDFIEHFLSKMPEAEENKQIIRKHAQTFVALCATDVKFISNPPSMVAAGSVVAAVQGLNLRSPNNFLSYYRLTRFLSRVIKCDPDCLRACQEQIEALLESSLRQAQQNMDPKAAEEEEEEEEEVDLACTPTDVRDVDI

## C[C@H]1CCCOc2cc(ccn2)Nc2cc(n[nH]2)[C@@H]2C[C@H](F)[C@@H](C2)OC(=O)N1 [Compound 225, (1^1S,1^3R,1^4S,9S,Z)-1^4-fluoro-9-methyl-2^1H-5,12-dioxa-3,10-diaza-4(4,2)-pyridina-2(3,5)-pyrazola-1(1,3)-cyclopentanacyclododecaphan-11-one]
[1]
  IC50: 0.002 to 0.01 µM
CDK9-CYCLIN T1; [3]
  IC50: 0.01 to 0.05 µM
CDK9-CYCLIN T1; Table 36
  CDK2 Fold selectivity against CDK9: E (E, <20)
CDK2-CYCLIN E1; [3]
  IC50: ≤ 0.01 µM
CDK1-CYCLIN B; [3]
  IC50: ≤ 0.01 µM
CDK1-CYCLIN B; Table 36
  CDK2 Fold selectivity against CDK1: E (E, <20)
CDK4-CYCLIN D1; [3]
  IC50: 0.01 to 0.05 µM
CDK4-CYCLIN D1; Table 36
  CDK2 Fold selectivity against CDK4: E (E, <20)
CDK6-CYCLIN D3; [3]
  IC50: 0.01 to 0.05 µM
CDK6-CYCLIN D3; Table 36
  CDK2 Fold selectivity against CDK6: E (E, <20)
[2]
  IC50: 0.01 to 0.05 µM
CCNE1-normal SKOV3 cells
  IC50: 0.25 to 1.25 µM

## C[C@H]1CC(F)(F)COc2cc(ccn2)Nc2[nH]nc(c2F)[C@H]2CC[C@H](C2)OC(=O)N1 [Compound 244, (1^1S,1^3R,9S,E)-2^4,7,7-trifluoro-9-methyl-2^1H-5,12-dioxa-3,10-diaza-4(4,2)-pyridina-2(3,5)-pyrazola-1(1,3)-cyclopentanacyclododecaphan-11-one]
[1]
  IC50: 0.01 to 0.05 µM
CDK9-CYCLIN T1; [4]
  IC50: > 0.5 µM
CDK9-CYCLIN T1; Table 38
  CDK2 Fold selectivity against CDK9: A (A, ≥500)
CDK2-CYCLIN E1; [4]
  IC50: ≤ 0.01 µM
CDK1-CYCLIN B; [4]
  IC50: 0.1 to 0.5 µM
CDK1-CYCLIN B; Table 38
  CDK2 Fold selectivity against CDK1: D (D, >20 and ≤50)
CDK4-CYCLIN D1; [4]
  IC50: > 0.5 µM
CDK4-CYCLIN D1; Table 38
  CDK2 Fold selectivity against CDK4: B (B, >100 and ≤500)
CDK6-CYCLIN D3; [4]
  IC50: > 0.5 µM
CDK6-CYCLIN D3; Table 38
  CDK2 Fold selectivity against CDK6: B (B, >100 and ≤500)
[2]
  IC50: 0.05 to 0.25 µM
CCNE1-normal SKOV3 cells
  IC50: > 1.25 µM

## C[C@H]1CCCNC(=O)O[C@@H]2CC[C@@H](C2)c2cc([nH]n2)Nc2ccnc(c2)O1 [compound 12]
[1]
  IC50: 0.002 to 0.01 µM
CDK9-CYCLIN T1; ADP-Glo, 1000 μM ATP, Table 11
  IC50: 0.1 to 0.5 µM
CDK2-CYCLIN E1; ADP-Glo, 1000 μM ATP, Table 11
  IC50: ≤ 0.01 µM
CDK1-CYCLIN B; ADP-Glo, 1000 μM ATP, Table 11
  IC50: 0.01 to 0.05 µM
CDK4-CYCLIN D1; ADP-Glo, 1000 μM ATP, Table 11
  IC50: 0.1 to 0.5 µM
CDK6-CYCLIN D3; ADP-Glo, 1000 μM ATP, Table 11
  IC50: 0.1 to 0.5 µM
[2]
  IC50: 0.01 to 0.05 µM
CCNE1-normal SKOV3 cells
  IC50: 0.25 to 1.25 µM

## O=C1NC23CC(CCc4cc(ccn4)Nc4cc([nH]n4)[C@H]4CC[C@H](C4)O1)(C2)C3 [compound 21]
[1]
  IC50: 0.002 to 0.01 µM
CDK9-CYCLIN T1; ADP-Glo, 1000 μM ATP, Table 9
  IC50: 0.1 to 0.5 µM
CDK2-CYCLIN E1; ADP-Glo, 1000 μM ATP, Table 9
  IC50: 0.01 to 0.05 µM
CDK1-CYCLIN B; ADP-Glo, 1000 μM ATP, Table 9
  IC50: > 0.5 µM
CDK4-CYCLIN D1; ADP-Glo, 1000 μM ATP, Table 9
  IC50: 0.1 to 0.5 µM
CDK6-CYCLIN D3; ADP-Glo, 1000 μM ATP, Table 9
  IC50: 0.1 to 0.5 µM
[2]
  IC50: 0.002 to 0.01 µM
CCNE1-normal SKOV3 cells
  IC50: 0.25 to 1.25 µM

## C[C@H]1OCCCNC(=O)O[C@@H]2CC[C@@H](C2)c2cc([nH]n2)Nc2ccnc1c2 [compound 71]
[1]
  IC50: 0.002 to 0.01 µM
CDK9-CYCLIN T1; ADP-Glo, 1000 μM ATP, Table 15
  IC50: 0.1 to 0.5 µM
CDK2-CYCLIN E1; ADP-Glo, 1000 μM ATP, Table 15
  IC50: ≤ 0.01 µM
CDK1-CYCLIN B; ADP-Glo, 1000 μM ATP, Table 15
  IC50: 0.05 to 0.1 µM
CDK4-CYCLIN D1; ADP-Glo, 1000 μM ATP, Table 15
  IC50: 0.1 to 0.5 µM
CDK6-CYCLIN D3; ADP-Glo, 1000 μM ATP, Table 15
  IC50: 0.1 to 0.5 µM
[2]
  IC50: 0.01 to 0.05 µM
CCNE1-normal SKOV3 cells
  IC50: 0.05 to 0.25 µM

## O=C1NCCCCOc2cncc(c2)Nc2cc(n[nH]2)[C@H]2CC[C@H](C2)O1 [compound 104]
[1]
  IC50: 0.002 to 0.01 µM
CDK9-CYCLIN T1; ADP-Glo, 1000 μM ATP, Table 7
  IC50: 0.1 to 0.5 µM
CDK2-CYCLIN E1; ADP-Glo, 1000 μM ATP, Table 7
  IC50: ≤ 0.01 µM
CDK1-CYCLIN B; ADP-Glo, 1000 μM ATP, Table 7
  IC50: 0.01 to 0.05 µM
CDK4-CYCLIN D1; ADP-Glo, 1000 μM ATP, Table 7
  IC50: 0.05 to 0.1 µM
CDK6-CYCLIN D3; ADP-Glo, 1000 μM ATP, Table 7
  IC50: 0.01 to 0.05 µM
[2]
  IC50: 0.01 to 0.05 µM
CCNE1-normal SKOV3 cells
  IC50: > 1.25 µM
